Here are results for eight molecules from patent publication US6537803B1, “Amino acid transporters and uses” (Oregon Health Sciences University, priority 1993, dated 2003).

The target in data set [1] is T1, human ASCT1 neutral amino acid transporter (Homo sapiens, UniProt P43007).
T1 construct: expressed in transfected cells; host or cells: Xenopus laevis oocytes injected with in vitro transcribed RNA (pOTV vector)
T1 sequence (P43007 1-532): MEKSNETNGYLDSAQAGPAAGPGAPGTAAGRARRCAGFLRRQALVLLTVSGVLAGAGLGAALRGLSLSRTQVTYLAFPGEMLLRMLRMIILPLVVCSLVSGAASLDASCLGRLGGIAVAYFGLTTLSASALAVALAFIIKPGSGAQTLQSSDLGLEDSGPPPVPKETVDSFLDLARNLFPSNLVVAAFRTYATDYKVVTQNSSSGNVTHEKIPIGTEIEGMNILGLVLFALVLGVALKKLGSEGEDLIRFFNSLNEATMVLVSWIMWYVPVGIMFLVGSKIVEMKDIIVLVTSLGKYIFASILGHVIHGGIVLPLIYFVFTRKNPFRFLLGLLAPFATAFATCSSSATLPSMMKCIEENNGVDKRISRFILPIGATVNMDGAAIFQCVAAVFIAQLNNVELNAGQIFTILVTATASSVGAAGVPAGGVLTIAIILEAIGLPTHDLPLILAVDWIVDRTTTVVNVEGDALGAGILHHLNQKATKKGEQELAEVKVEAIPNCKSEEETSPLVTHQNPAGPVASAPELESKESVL
Put plainly: radiolabeled amino acid uptake in ASCT1 RNA-injected Xenopus oocytes. Format: cell-based. The note with it: for rate of radiolabeled amino acid uptake, ASCT1 RNA-injected Oocytes: Amino Acid (1 mM), n = 5. The text has this:
(§1) Following the PCR, the product of the amplification reaction was purified using standard techniques (Saiki et al., 1988, Science 239: 487-491). The DNA then digested with the restriction enzymes KpnI and XbaI and then cloned into the polylinker of an oocyte transcription vector (POTV; see Wang el al., 1991, Nature 352: 729-731) that had been digested with KpnI and XbaI. Synthetic RNA was then transcribed in vitro from this clone using the method of Kavanaugh et al. (1992, J. Biol. Chem. 267: 22007-22009) employing bacteriophage T7 RNA polymerase (New England Biolabs, Beverly, Mass.). 20-50 nL of ASCT1 RNA (at a concentration of about 400 μg/mL) was injected into defolliculated stage V-VI Xenopus oocytes excised from female Xenopus laevis anesthetized by immersion in 3-aminobenzoic acid for 60 min. Excised oocytes were treated with collagenase II (Sigma Chemical Co., St. Louis, Mo.) in calcium-free Barth's saline solution [comprising 88 mM NaCl, 1 mM KCl, 2.4 mM NaHCO3, 0.82 mM MgSO4, 7.5 mM Tris-HCl (pH 7.6), 50 U/mL Nystatin (Sigma) and 0.1 mg/mL gentamycin (Sigma)] for 60 min., and then incubated overnight at 15° C. in 50% Leibowitz's L-15 media (Grand Island Biological Co. (GIBCO), Long Island, N.Y.). After overnight incubation the oocytes were mechanically defolliculated and then were injected with ASCT-1 RNA and incubated at 19° C. for 48 h (see Kim el al., 1991, Nature 352: 725-728 for further details of Xenopus oocyte preparation and microinjection).
(§2) Amino acid transport in such oocytes was assayed using [^3H] alanine, [^3H] serine or [^35S] cysteine (obtained from New England Nuclear, Boston, Mass.). Briefly, microinjected oocytes were […] at −60 mV using a Dagan TEV-200 clamp amplifier with an Axon Instruments (Foster City, Calif.) TL-1 A/D interface controlled by pCLAMP software (Axon Instruments) (see Kavanaugh et al., 1992, J. Biol. Chem. 267: 22007-22009 for a detailed review of this methodology) and continuously superfused with ND-96 buffer (consisting of 96 mM NaCl/2 mM KCl/1.8 mM CaCl2/1 mM MgCl2/5 mM HEPES, pH 7.5). For transport measurements, this solution was changed to a solution containing varying concentrations of the radiolabeled amino acids in ND-96 buffer.

The target of data set [2] is T1, human ASCT1 neutral amino acid transporter. Put plainly: amino acid-induced inward current in voltage-clamped ASCT1-injected Xenopus oocytes. The format is cell-based. To be noted: for Imax (maximal current): L-stereoisomer, current normalized to the maximum response obtained with L-alanine, mean ± standard error; for membrane response (inward Na+ currents) of ASCT1-injected oocytes: ND-96 buffer, clamped at −60 mV.
Excerpt: as §1, §2
More detailed analyses of ithe kinetics of amino acid influx were performed by least squares linear regression analysis of induced inward current ([I]) plotted as a function of substrate amino acid concentration ([S]), using the equation shown in the legend of Table II.

The next data set deals with Water-injected Oocytes. Put plainly: radiolabeled amino acid uptake in water-injected Xenopus oocytes. Format: cell-based, Xenopus laevis. The note with it: Amino Acid (1 mM); n = 5.
Excerpt: as §1
Amino acid transport in such oocytes was assayed using [^3H] alanine, [^3H] serine or [^35S] cysteine (obtained from New England Nuclear, Boston, Mass.). Briefly, microinjected oocytes were […] at −60 mV using a Dagan TEV-200 clamp amplifier with an Axon Instruments (Foster City, Calif.) TL-1 A/D interface controlled by pCLAMP software (Axon Instruments) (see Kavanaugh et al., 1992, J. Biol. Chem. 267: 22007-22009 for a detailed review of this methodology) and continuously superfused with ND-96 buffer (consisting of 96 mM NaCl/2 mM KCl/1.8 mM CaCl2/1 mM MgCl2/5 mM HEPES, pH 7.5). […]

The target in data set [3] is human EAAT1 excitatory amino acid transporter (Homo sapiens, UniProt P43003). Put plainly: electrogenic amino acid uptake in EAAT1-expressing Xenopus oocytes. To be noted: for electrogenic uptake in EAAT1-expressing oocytes: 1000 μM.
For another data set, the system named is neuronal cell. To be noted: cited from earlier work.
The target in the next data set is T2, human EAAT1 (Homo sapiens, UniProt P43003).
T2 construct: expressed in transfected cells; host or cells: COS-7 cells, pCMV5 construct, DEAE-dextran transient transfection
Put plainly: inhibition of [3H]-L-glutamate uptake in COS-7 cells expressing EAAT1. Format: cell-based. The text has this:
(§3) DNA fragments comprising the coding sequences of the novel glutamate transporter genes of the invention were excised from the POTV constructs described in Example 3 and subcloned into the mammalian expression plasmid pCMV5 (Anderson et al., 1989, J. Biol. Chem. 264: 8222-8229). These mammalian expression constructs were used for transient expression assays of glutamate transporter protein function after transfection of each of these constructs into COS-7 cells (Gluzman, 1981, Cell 23: 175-182).
(§4) Each of the pCMV5 constructs corresponding to EAAT1, EAAT2 and EAAT3 were introduced into COS-7 cells by DEAE-dextran facilitated transfection (see Sambrook et al., ibid.). Two day following transfection, the transfected cells were washed three times in phosphate-buffered saline (PBS) and then incubated with a mixture of radiolabeled amino acid ([^3H]-L-glutamate or [^3H]-D-aspartate; Dupont-NEN) and non-radiolabeled amino acid for 10 min. After incubation, the cells were washed three times with ice-cold PBS, solubilized with a solution of 0.1% sodium dodecyl sulfate (SDS) and the amount of radioactivity associated with the cells determined using standard liquid scintillation counting methods.
(§5) COS-7 cell cultures transformed with pCMVS-human glutamate transporter constructs as described in Example 4 were used to characterize the pharmacological properties of each of these transporter proteins relative to a variety of known glutamate transporter inhibitors. These assays were performed essentially as described in Example 4, with the exception that varying amounts of each of a number of known inhibitor compounds were included in the incubations.
(§6) In these experiments, uptake of 1 μM of […] was determined in the presence of the indicated amounts of each of the inhibitors.

The next data set addresses T3, human EAAT2 (Homo sapiens, UniProt P43004).
T3 construct: expressed in transfected cells; host or cells: COS-7 cells, pCMV5 construct, DEAE-dextran transient transfection
Put plainly: inhibition of [3H]-L-glutamate uptake in COS-7 cells expressing EAAT2. Format: cell-based.
Excerpt: as §3, §4, §5, §6

A further data set deals with T4, human EAAT3 (Homo sapiens, UniProt P43005).
T4 construct: isolation of Clone GT11B containing a full-length open reading frame encoding EAAT3; expressed in transfected cells; host or cells: COS-7 cells, pCMV5 construct, DEAE-dextran transient transfection
T4 sequence (P43005 1-524): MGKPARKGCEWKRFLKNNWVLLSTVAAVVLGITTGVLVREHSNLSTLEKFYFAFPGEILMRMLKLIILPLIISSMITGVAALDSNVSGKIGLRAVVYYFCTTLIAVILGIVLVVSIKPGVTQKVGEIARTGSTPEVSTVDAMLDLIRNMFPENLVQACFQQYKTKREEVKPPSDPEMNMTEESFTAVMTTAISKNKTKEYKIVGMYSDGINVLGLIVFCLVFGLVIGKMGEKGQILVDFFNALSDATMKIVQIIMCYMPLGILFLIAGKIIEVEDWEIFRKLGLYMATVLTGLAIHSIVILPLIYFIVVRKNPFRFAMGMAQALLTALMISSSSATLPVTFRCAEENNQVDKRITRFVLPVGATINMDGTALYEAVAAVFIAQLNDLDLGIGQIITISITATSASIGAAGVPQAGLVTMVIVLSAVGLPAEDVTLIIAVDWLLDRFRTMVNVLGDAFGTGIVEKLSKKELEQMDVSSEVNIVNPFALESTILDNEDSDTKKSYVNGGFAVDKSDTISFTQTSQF
Put plainly: inhibition of [3H]-L-glutamate uptake in COS-7 cells expressing EAAT3. The format is cell-based.
Excerpt: as §3, §4, §5, §6

Substrate in data set [4]: N[C@@H](CS)C(=O)O
Put plainly: cells, lysate or membranes. To be noted: other: inward current vs extracellular substrate concentration.

The term Km denotes the concentration of substrate that gives half-maximal velocity. As usually defined, the Ki is a dissociation constant, usually derived from enzyme kinetics or from competition with a known ligand.

Read-outs that look alike come from different tables or passages of the source. Residues, ends and D or L forms follow the SMILES beside them. Where only a bound is given, the exact number is not on record here.

T3 sequence (P43004 whole entry): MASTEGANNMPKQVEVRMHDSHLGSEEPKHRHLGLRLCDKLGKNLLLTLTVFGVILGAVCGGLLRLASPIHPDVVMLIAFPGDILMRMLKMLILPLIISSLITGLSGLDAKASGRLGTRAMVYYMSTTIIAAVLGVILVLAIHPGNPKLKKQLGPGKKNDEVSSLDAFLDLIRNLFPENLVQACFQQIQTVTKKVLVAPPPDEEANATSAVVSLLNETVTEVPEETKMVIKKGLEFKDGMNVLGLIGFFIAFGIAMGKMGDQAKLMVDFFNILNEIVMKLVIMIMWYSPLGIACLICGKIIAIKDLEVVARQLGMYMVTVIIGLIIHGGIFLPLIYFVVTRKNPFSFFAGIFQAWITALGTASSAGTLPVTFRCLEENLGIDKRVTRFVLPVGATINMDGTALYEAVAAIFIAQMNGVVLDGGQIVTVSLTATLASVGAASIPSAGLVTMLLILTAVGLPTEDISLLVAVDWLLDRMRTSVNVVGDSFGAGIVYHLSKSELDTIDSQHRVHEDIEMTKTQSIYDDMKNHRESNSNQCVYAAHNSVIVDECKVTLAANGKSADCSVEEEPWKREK

With `CNC(C)(C)C(=O)O` [MAIB, 2-methylaminoisobutyric acid], the “effect on the rate of uptake of [3H] alanine (competition)” value in [1] (competitor 10 mM, [3H] alanine 100 μM) is listed as “had no effect”. Besides, the “effect on membrane current of ASCT1-injected oocytes” value in [2] (1 mM) is on record as “had no effect”.
As for `N[C@@H](CO)C(=O)O` [L-serine], the “rate of radiolabeled amino acid uptake, ASCT1 RNA-injected Oocytes” value (“rate … ASCT1 RNA-injected Oocytes” for short) in data set [1] came out at 20 ± 5.1 pmol/min per oocyte. In the data set on Water-injected Oocytes, the “rate of radiolabeled amino acid uptake, Water-injected Oocytes” value (“rate … Water-injected Oocytes” below) was found to be 0.4 ± 0.1 pmol/min per oocyte. For the same molecule, in data set [2], the “Imax (maximal current)” value was determined as 1.2 ± 0.08 and the “membrane response (inward Na+ currents) of ASCT1-injected oocytes” value (shortened to “membrane response (inward Na+ currents)”) is reported as “hyperpolarization of the cell plasma membrane was produced”. For the same molecule, the “electrogenic uptake in EAAT1-expressing oocytes” value (“electrogenic uptake” for short) in data set [3] is given as “did not result in electrogenic uptake”.
Regarding `N[C@@H](CCC(=O)O)C(=O)O` [L-glutamate], the “extracellular concentration causing neuronal cell death” value is more than 300 µM with neuronal cell (Bouvier et al., 1992, Nicholls & Attwell) and more than 5 µM in the data set on neuronal cell (for 5 min., Choi et al., 1987). Moreover, in data set [3], the “inward electric current in EAAT1-expressing oocytes (stereospecificity)” value is on record as “did not result in the generation of an inward electric current”. The “inward current in EAAT1-expressing oocytes” value in data set [3] (100 μM in ND-96) is “inward currents as high as several microamps”. Moreover, the Km in data set [3] (inward current vs extracellular substrate concentration) stood at 54 µM.
With `C[C@H](N)C(=O)O` [L-alanine], the “rate … ASCT1 RNA-injected Oocytes” value in data set [1] came to 18 ± 2 pmol/min per oocyte. Further, in the data set on Water-injected Oocytes, the “rate … Water-injected Oocytes” value was determined as 0.6 ± 0.1 pmol/min per oocyte. Besides, in [2], the “Imax (maximal current)” value was “(1.0)” and the “membrane response (inward Na+ currents)” value was “hyperpolarization of the cell plasma membrane was produced”. In data set [3], the “electrogenic uptake” value is reported as “did not result in electrogenic uptake”.
With `CC(=O)N[C@@H](CC(=O)O)C(=O)N[C@@H](CCC(=O)O)C(=O)O` [N-acetyl aspartylglutamate] (Ac-Asp-Glu-OH), on human EAAT1 (COS cell culture), the “inhibition of glutamate uptake (in words), EAAT1” value is on record as “ineffective”. For the same molecule, the “inhibition of glutamate uptake (in words), EAAT2” value at human EAAT2 (COS cell culture) was “ineffective”. Also, the “inhibition of glutamate uptake (in words), EAAT3” value at human EAAT3 (COS cell culture) is “ineffective”.
As to `CC(C)[C@H]1CN[C@H](C(=O)O)[C@H]1CC(=O)O` [DHK, dihydrokainate], the Ki on human EAAT1 is more than 1000 µM; at human EAAT2 it was 23 ± 6 µM; on human EAAT3, more than 1000 µM.
In the case of `N[C@@H](CS)C(=O)O` [L-cysteine], the “rate … ASCT1 RNA-injected Oocytes” value in [1] is recorded as 19.2 ± 5.9 pmol/min per oocyte. Besides, the “rate … Water-injected Oocytes” value in the data set with Water-injected Oocytes was 1.0 ± 0.3 pmol/min per oocyte. Also, in data set [2], the “Imax (maximal current)” value was found to be 1.0 ± 0.04 and the “membrane response (inward Na+ currents)” value was “hyperpolarization of the cell plasma membrane was produced”. The “electrogenic uptake” value in [3] is given as “capable of being electrogenically transported”.

B1: human EAAT1 excitatory amino acid transporter (Homo sapiens) (protein)
chain: MTKSNGEEPKMGGRMERFQQGVRKRTLLAKKKVQNITKEDVKSYLFRNAFVLLTVTAVIVGTILGFTLRPYRMSYREVKYFSFPGELLMRMLQMLVLPLIISSLVTGMAALDSKASGKMGMRAVVYYMTTTIIAVVIGIIIVIIIHPGKGTKENMHREGKIVRVTAADAFLDLIRNMFPPNLVEACFKQFKTNYEKRSFKVPIQANETLVGAVINNVSEAMETLTRITEELVPVPGSVNGVNALGLVVFSMCFGFVIGNMKEQGQALREFFDSLNEAIMRLVAVIMWYAPVGILFLIAGKIVEMEDMGVIGGQLAMYTVTVIVGLLIHAVIVLPLLYFLVTRKNPWVFIGGLLQALITALGTSSSSATLPITFKCLEENNGVDKRVTRFVLPVGATINMDGTALYEALAAIFIAQVNNFELNFGQIITISITATAASIGAAGIPQAGLVTMVIVLTSVGLPTDDITLIIAVDWFLDRLRTTTNVLGDSLGAGIVEHLSRHELKNRDVEMGNSVIEENEMKKPYQLIAQDNETEKPIDSETKM
B1: in data set [4], the Km came out at 300 µM.
